How the values were obtained:
[1] = test system: MDA-MB-435 breast cancer cell line; assay: MTT cytotoxicity assay, MDA-MB-435; format: cell-based, human; conditions: for IC50: 72 h exposure
Source text: (§1) The human breast cancer cell line MDA-MB-435 and the colon cancer cell line HT29 were purchased from the American Type Cell Culture (Manassas, Va.). Colon cancer cell lines HCT116 p53^+/+ and HCT116 p53^−/− were kindly provided by Dr. Bert Vogelstein (Johns Hopkins Medical Institutions, Baltimore, Md.). The human ovarian carcinoma cell line (HEY), naturally resistant to cisplatin (CDDP), was kindly provided by Dr. Louis Dubeau (USC Norris Cancer Center). The bladder cancer cell lines were kindly provided by Dr. Richard Cote (USC Keck School of Medicine). Cells were maintained as monolayer cultures in the appropriate media: RPMI-1640 (HT29, HCT116 p53^+/+, HCT116 p53^−/−, and HEY cell lines) or DMEM (MDA-MB-435 and UMUC3 cell lines) supplemented with 10% fetal bovine serum (FBS) (HyClone, Road Logan, Utah) at 37° C. in a humidified atmosphere of 5% CO2. To remove the adherent cells from the flask for subculture and counting, cells were washed with PBS without calcium or magnesium, incubated with a small volume of 1×trypsin-EDTA solution (Sigma-Aldrich, St. Louis, Mo.) for 5 min, resuspended with fresh culture medium, and centrifuged at 1200 rpm for 5 min. All experiments were performed using cells in exponential growth phase. Cells were routinely checked for Mycoplasma contamination using PlasmaTest kit (InvivoGen, San Diego, Calif.).
(§2) Cytotoxicity was assessed by MTT assay as described previously. 43 In brief, cells were seeded in 96-well microtiter plates and allowed to attach overnight. Cells were subsequently treated with continuous exposure to corresponding drugs for 72 h. At the end of treatments, an MTT solution (at a final concentration of 0.5 mg/mL) was added to each well, and cells were incubated for 4 h at 37° C. After removal of the supernatant, DMSO was added, and the absorbance was read at 570 nm. All assays were done in triplicate. The IC50 was then determined for each drug from a plot of log(drug concentration) versus percentage of cells killed.

[2] = test system: HEY ovarian cancer cell line; assay: Cytotoxicity assay, HEY; format: cell-based; conditions: Homo sapiens
Source text: as §1, §2

[3] = test system: doxorubicin-resistant NCI/ADR-RES ovarian cancer cell line; assay: Cytotoxicity assay, NCI/ADR-RES; format: cell-based; conditions: Homo sapiens
Protocol: as §2

[4] = test system: 5637 bladder cancer cell line; assay: MTT cytotoxicity assay, 5637; format: cell-based, human; conditions: Homo sapiens, 72 h exposure
Source text: as §1, §2

[5] = test system: UMUC3 bladder cancer cell line; assay: MTT cytotoxicity assay, UMUC3; format: cell-based; conditions: Homo sapiens, 72 h exposure
Source text: as §1, §2

[6] = test system: HT29 colon cancer cell line; assay: MTT cytotoxicity assay, HT29; format: cell-based; conditions: Homo sapiens, HT-29, 72 h exposure
Source text: as §1, §2

[7] = Pharmacokinetics study after i.p. administration; format: in vivo, mice; conditions: mouse, ip
Protocol: To assess the efficacy, tolerability, and pharmacokinetics of these novel compounds following i.p. administration, the pharmacokinetic profile of compounds 4 and 9 was evaluated (Table 3). Mice were treated with compounds 4 and 9 via i.p. injection and serial blood sampling was determined at indicated times after administration. The plasma concentration was determined using a validated liquid chromatography mass spectrometry (LC-MS) method where the lowest level of quantification was 1 ng/mL. One hour following i.p. administration of compounds 4 and 9, their concentrations in the blood were 344 and 6.2 ng/mL, respectively. […] The half-lives of compounds 4 and 9 via i.p. administration were determined to be approximately 3.5 and 9.3 hours, respectively, when a non-compartmental pharmacokinetics analysis was used. The favorable pharmacokinetics profile of compounds 4 and 9 is consistent with the ADMET predictions described previously.
Preliminary pharmacokinetics of compounds 4 and 9 were performed using 18 mice, each time point consisting of two mice. Mice were stratified to various doses given as an i.p. injection of compounds 4 and 9 (24 mg/kg). At the specified time points following drug administration, blood was collected with heparinized syringes. The samples were allowed to settle in 500 μL eppendorf vials and then centrifuged at 1500 rpm for 10 min. The plasma was removed, transferred into new eppendorf tube, and frozen at −80° C. until analysis.

[8] = test system: HCT116 p53^+/+ colon cancer cell line; assay: MTT cytotoxicity assay, HCT116 p53+/+; format: cell-based; conditions: Homo sapiens, HCT-116, 72 h exposure
Source text: as §1, §2

[9] = test system: HCT116 p53^−/− colon cancer cell line; assay: MTT cytotoxicity assay, HCT116 p53-/-; format: cell-based; conditions: Homo sapiens, HCT-116, 72 h exposure
Source text: as §1, §2

MDA-MB-435 cells = assay: Mitochondrial superoxide production (MitoSOX Red); format: cell-based, human
Protocol: After drug treatments, a solution of 5 μM MitoSOX Red mitochondrial superoxide indicator (Invitrogen, Carlsbad, Calif.) was added, and cells were incubated for 10 min at 37° C. Cells were then washed three times with Hank's balanced salt solution (HBSS) to remove excess MitoSOX. After washing, cells were either observed under the fluorescence microscope or collected by trypsinization, washed twice with HBSS, and measured for superoxide production using a BD LSRII flow cytometer (BD Biosciences, San Jose, Calif., USA). Data were analyzed with the BD FACSDiva software package (BD Biosciences, San Jose, Calif., USA).

[10] = test system: OVCAR3 ovarian cancer cell line; assay: In vitro cytotoxicity, OVCAR3; format: cell-based; conditions: Homo sapiens, OVCAR-3; Table 4, ovarian cancer panel
Protocol: as §2

[11] = test system: OVCAR8 ovarian cancer cell line; assay: In vitro cytotoxicity, OVCAR8; format: cell-based; conditions: Homo sapiens, OVCAR-8; Table 4, ovarian cancer panel
Protocol: as §2

SMILES | IC50 ([3]; Table 4, ovarian cancer panel) [nM] | IC50 [10] [nM] | IC50 [11] [nM] | further results
C#CC(=O)N(c1ccc(-n2cnnn2)c(C)c1)C(C(=O)NC1CCCC1)c1ccccc1 (stereo not drawn) [Compound 9, N-[2-(Cyclopentylamino)-2-oxo-1-phenylethyl]-N-[3-methyl-4-(1Htetraazol-1-yl)phenyl]Propynamide] | – | – | – | cytotoxic potency in MDA-MB-435 cells [1]: most potent analogue; IC50 [1]: 600 ± 300 nM; IC50 ([1]; Homo sapiens, MDA-MB-435, 72 h): 600 to 6300 nM; IC50 ([2]; MTT, 72 h exposure (Table 2)): 1900 ± 300 nM; IC50 ([3]; MTT, 72 h exposure (Table 2)): 1000 ± 700 nM; IC50 [4]: 400 ± 100 nM; IC50 [5]: 7800 ± 1800 nM; IC50 [6]: 1500 ± 1100 nM; AUC ([7]; in vivo, 24 mg/kg): 124.9 ng·h/mL; Cmax ([7]; in vivo, 24 mg/kg): 6.2 ng/mL; Tmax ([7]; in vivo, 24 mg/kg): 5 h; half-life ([7]; in vivo, 24 mg/kg): ~9.3 h; t1/2 ([7]; in vivo, 24 mg/kg): 9.3 h; concentration at 1 h ([7]; plasma, mice, 24 mg/kg i.p., 1 hour, read-out: concentration in the blood one hour following i.p. administration): 6.2 ng/mL; IC50 [8]: 7200 ± 200 nM; IC50 [9]: 5700 ± 900 nM
C#CC(=O)N(c1ccccc1)C(C(=O)NC1CCCCC1)c1cccs1 (stereo not drawn) [Compound 18, N[2-(Cyclohexylamino)-2-oxo-1-thien-2-ylethyl]-N-phenyl Propynamide] | – | – | – | IC50 ([1]; Homo sapiens, MDA-MB-435, 72 h): > 10000 nM; IC50 ([2]; MTT, 72 h exposure (Table 2)): > 10000 nM; IC50 ([3]; MTT, 72 h exposure (Table 2)): 1300 ± 400 nM; intensity of MitoSOX staining, fluorescence microscopy (MDA-MB-435 cells; 24 hours): remarkably enhanced the intensity of MitoSOX staining; mitochondrial superoxide production, flow cytometry (MDA-MB-435 cells; IC50 or 3×IC50, 24 hours): induce significant amounts of superoxide; IC50 [4]: 3500 ± 1400 nM; IC50 [5]: > 20000 nM; IC50 [6]: > 10000 nM; IC50 [8]: 14000 nM; IC50 [9]: > 20000 nM
C#CC(=O)N(c1ccc(-n2cnnn2)c(C)c1)C(C(=O)NC1CCCC1)c1ccc(F)cc1 (stereo not drawn) [Compound 21] | 520 | 3100 | 2200 | IC50 ([2]; Table 4, ovarian cancer panel): 310 nM
C#CC(=O)N(c1ccc(-n2cnnn2)c(C)c1)C(C(=O)NC1CCCC1)c1ccc(F)c(F)c1 (stereo not drawn) [Compound 22] | 320 | 2500 | 1500 | IC50 ([2]; Table 4, ovarian cancer panel): 330 nM
C#CC(=O)N(c1ccc(-n2cnnn2)c(C)c1)C(C(=O)NC1CCCC1)c1cccc(F)c1 (stereo not drawn) [Compound 23] | 2000 | 250 | 1500 | IC50 ([2]; Table 4, ovarian cancer panel): 720 nM
C#CC(=O)N(c1ccc(C(N)=O)cc1)C(C(=O)NC1CCCC1)c1ccccc1 (stereo not drawn) [Compound 34] | 2500 | 2500 | 1200 | –
C#CC(=O)N(c1cc(OC)cc(OC)c1)C(C(=O)NC1CCCCC1)c1ccc(OC)c(O)c1 (stereo not drawn) [Compound 35] | 5500 | 7500 | 2900 | –
C#CC(=O)NCC(=O)N(c1ccc(OC)cc1OC)C(C(=O)NC1CCCC1)c1cccs1 (stereo not drawn) [Compound 36] | 8500 | 2300 | 3100 | –
C#CC(=O)NCCC(=O)N(c1ccc(OC)cc1OC)C(C(=O)NC1CCCC1)c1cccs1 (stereo not drawn) [Compound 37] | 9000 | 2300 | 1500 | –
C#CC(=O)N(c1ccc(OC)cc1OC)C(C(=O)NCC(=O)OCC)c1cccs1 (stereo not drawn) [Compound 38] | 2600 ± 1500 | 320 | 2800 ± 700 | –
C#CC(=O)N(c1ccc(OC)cc1OC)C(C(=O)NCC(=O)O)c1cccs1 (stereo not drawn) [Compound 39] | 8000 | > 10000 | 6000 | –
C#CC(=O)N(CC(=O)NCC(=O)OCC)c1ccc(OC)cc1OC [Compound 43] | 140 | 300 | 2200 | –
C#CC(=O)N(CC(=O)NCC(=O)OCC)c1ccc(-n2cnnn2)c(C)c1 [Compound 44] | 6300 | > 10000 | > 10000 | –
CC(=O)O[C@H]1C(=O)[C@@]2(C)[C@H]([C@H](OC(=O)c3ccccc3)[C@]3(O)C[C@H](OC(=O)[C@H](O)[C@@H](NC(=O)c4ccccc4)c4ccccc4)C(C)=C1C3(C)C)[C@]1(OC(C)=O)CO[C@@H]1C[C@@H]2O [paclitaxel, reference compound] | – | – | – | mitochondrial superoxide, fluorescence microscopy (MDA-MB-435 cells; 1.5 μM): only induced a minor amount of mitochondrial superoxide

Source: patent US20130071328A1, “Propynoic Acid Carbamoyl Methyl-Amides and Pharmaceutical Compositions and Methods Based Thereon” (UNIVERSITY OF SOUTHERN CALIFORNIA, priority 2011, published 2013)
